Measurements: ChEMBL document CHEMBL5537151, “Design, synthesis and bioactivity evaluation of novel fusion peptides and their CPT conjugates inducing effective anti-tumor responses on HER2 positive tumors” (Eur J Med Chem, 2024)
Calls of active or inactive are those of the source. No cut-off for these calls is given here. Peptide text beside a SMILES is read from it. * marks the point of attachment. X1 = CCC1(C(=O)OCCS*)C(=O)OCc2c1cc1n(c2=O)Cc2cc3ccccc3nc2-1

Columns and labels:
[1] = test system: SK-BR-3; experiment: Induction of apoptosis in human SK-BR-3 cells assessed as downregulation of cIAP1 protein expression at 2.5 to 5 uM incubated for 24 hrs by Western blot analysis; format: functional, cell-based; conditions: dose 2.5-5 µM
[2] = Toxicity in nude mouse xenografted with human SK-BR-3 cells assessed as increase in ALT level at 8 umol/kg, iv administered every 3 days for 14 days; format: organism-based; conditions: in vivo, 336 h, dose 8 µmol/kg, time 14 day
[3] = test system: MDA-MB-231; experiment: cells; conditions: Homo sapiens, MDA-MB-231, 48 h
Description: Cytotoxicity against HER-negative human MDA-MB-231 cells incubated for 48 hrs by CCK-8 assay

[4] = Toxicity in nude mouse xenografted with human SK-BR-3 cells assessed as inflammatory cell infiltration in kidney at 8 umol/kg, iv administered every 3 days for 14 days by H and E staining based analysis; format: organism-based; conditions: in vivo, 336 h, dose 8 µmol/kg, time 14 day
[5] = Toxicity in nude mouse xenografted with human SK-BR-3 cells assessed as inflammatory cell infiltration in heart at 8 umol/kg, iv administered every 3 days for 14 days by H and E staining based analysis; format: organism-based; conditions: in vivo, 336 h, dose 8 µmol/kg, time 14 day
[6] = test system: SK-BR-3; experiment: Induction of apoptosis in human SK-BR-3 cells assessed as downregulation of XIAP protein expression at 2.5 to 5 uM incubated for 24 hrs by Western blot analysis; format: functional, cell-based; conditions: dose 2.5-5 µM
[7] = Toxicity in nude mouse xenografted with human SK-BR-3 cells assessed as inflammatory cell infiltration in spleen at 8 umol/kg, iv administered every 3 days for 14 days by H and E staining based analysis; format: organism-based; conditions: in vivo, 336 h, dose 8 µmol/kg, time 14 day
[8] = Drug localization in lysosome of human SK-BR-3 cells assessed as increase in red fluorescence of lysosomal dye at 10 uM incubated for 6 hrs by FITC/Lysotracker red dye based laser confocal microscopic analysis; format: ADME, subcellular; conditions: sk-br-3, 6 h
[9] = Toxicity in nude mouse xenografted with human SK-BR-3 cells assessed as cell necrosis in lung at 8 umol/kg, iv administered every 3 days for 14 days by H and E staining based analysis; format: organism-based; conditions: in vivo, 336 h, dose 8 µmol/kg, time 14 day
[10] = Toxicity in nude mouse xenografted with human SK-BR-3 cells assessed as cell necrosis in spleen at 8 umol/kg, iv administered every 3 days for 14 days by H and E staining based analysis; format: organism-based; conditions: in vivo, 336 h, dose 8 µmol/kg, time 14 day
[11] = test system: SK-BR-3; experiment: Induction of apoptosis in human SK-BR-3 cells assessed as downregulation of XIAP protein expression at 2.5 uM by Western blot analysis; format: functional, cell-based; conditions: time 24-48 hrs, TDE = time-dependent effect
[12] = test system: SK-BR-3; experiment: Induction of apoptosis in human SK-BR-3 cells assessed as caspase-3 activation by measuring increase in green fluorescence incubated for 24 hrs by GreenNuc substrate/Hoechst 33342 staining based fluorescence microscopic analysis; format: functional, cell-based
[13] = test system: SK-BR-3; experiment: Induction of apoptosis in human SK-BR-3 cells assessed as downregulation of cIAP1 protein expression at 2.5 uM by Western blot analysis; format: functional, cell-based; conditions: time 24-48 hrs, TDE = time-dependent effect
[14] = test system: SK-BR-3; experiment: Induction of apoptosis in human SK-BR-3 cells assessed as necrotic cells at 1 uM incubated for 24 hrs by Annexin V-FITC/PI staining based flow cytometry analysis (reference value: 1.49%); format: functional
[15] = test system: SK-BR-3; experiment: Antitumor activity against human SK-BR-3 cells xenografted in nude mouse assessed as inhibition of tumor growth at 8 umol/kg, iv administered every 3 days for 14 days and measured every 2 days by vernier caliper analysis; format: functional, organism-based; conditions: dose 8.0 µmol/kg, time 14.0 day
[16] = Toxicity in nude mouse xenografted with human SK-BR-3 cells assessed as cell necrosis in kidney at 8 umol/kg, iv administered every 3 days for 14 days by H and E staining based analysis; format: organism-based; conditions: in vivo, 336 h, dose 8 µmol/kg, time 14 day
[17] = test system: SK-BR-3; experiment: Induction of apoptosis in human SK-BR-3 cells assessed as late apoptotic cells at 1 uM incubated for 24 hrs by Annexin V-FITC/PI staining based flow cytometry analysis (reference value: 1.11%); format: functional
[18] = test system: NCI-N87; experiment: cells; conditions: Homo sapiens, NCI-N87, 48 h
Description: Cytotoxicity against HER-positive human NCI-N87 cells incubated for 48 hrs by CCK-8 assay

[19] = Toxicity in nude mouse xenografted with human SK-BR-3 cells assessed as change in globulin level at 8 umol/kg, iv administered every 3 days for 14 days; format: organism-based; conditions: in vivo, 336 h, dose 8 µmol/kg, time 14 day
[20] = Drug localization in lysosome of human SK-BR-3 cells assessed as increase in green fluorescence of FITC at 10 uM incubated for 6 hrs by FITC/Lysotracker red dye based laser confocal microscopic analysis; format: ADME, subcellular; conditions: sk-br-3, 6 h
[21] = biological target: T1, DNA topoisomerase 1 (Homo sapiens) (UniProt P11387); experiment: Inhibition of topoisomerase 1 (unknown origin) assessed as reduction in DNA relaxation by measuring increase in supercoiled DNA level pretreated for 20 mins in water bath followed by pBR322 DNA addition and measured after 30 mins by agarose gel electrophoresis; conditions: dose 1-100 µM, time 50.0 min
T1 sequence (whole entry): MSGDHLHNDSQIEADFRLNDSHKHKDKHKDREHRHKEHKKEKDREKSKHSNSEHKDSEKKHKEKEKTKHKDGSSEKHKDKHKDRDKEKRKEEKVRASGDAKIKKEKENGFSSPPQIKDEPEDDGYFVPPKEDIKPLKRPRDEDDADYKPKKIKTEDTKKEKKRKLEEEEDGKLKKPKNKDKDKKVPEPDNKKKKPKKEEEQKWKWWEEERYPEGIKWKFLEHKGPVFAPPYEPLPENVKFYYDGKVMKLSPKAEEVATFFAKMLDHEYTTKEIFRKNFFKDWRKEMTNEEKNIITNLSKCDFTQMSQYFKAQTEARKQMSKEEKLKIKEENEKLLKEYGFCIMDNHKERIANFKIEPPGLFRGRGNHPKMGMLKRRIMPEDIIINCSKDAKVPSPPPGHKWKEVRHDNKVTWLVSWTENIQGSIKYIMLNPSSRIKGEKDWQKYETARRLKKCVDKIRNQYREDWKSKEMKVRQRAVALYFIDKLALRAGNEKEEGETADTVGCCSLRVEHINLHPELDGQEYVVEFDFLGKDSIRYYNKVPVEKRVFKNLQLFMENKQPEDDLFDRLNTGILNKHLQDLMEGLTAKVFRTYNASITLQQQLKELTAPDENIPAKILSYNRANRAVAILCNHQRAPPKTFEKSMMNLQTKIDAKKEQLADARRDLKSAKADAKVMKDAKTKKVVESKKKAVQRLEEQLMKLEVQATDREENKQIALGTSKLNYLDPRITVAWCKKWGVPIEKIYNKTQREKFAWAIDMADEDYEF

[22] = Toxicity in nude mouse xenografted with human SK-BR-3 cells assessed as change in blood urea nitrogen level at 8 umol/kg, iv administered every 3 days for 14 days; format: organism-based; conditions: in vivo, 336 h, dose 8 µmol/kg, time 14 day
[23] = test system: SK-BR-3; experiment: Induction of apoptosis in human SK-BR-3 cells assessed as increase in ROS level by flow cytometry analysis; format: functional, cell-based
[24] = Toxicity in nude mouse xenografted with human SK-BR-3 cells assessed as cell necrosis in heart at 8 umol/kg, iv administered every 3 days for 14 days by H and E staining based analysis; format: organism-based; conditions: in vivo, 336 h, dose 8 µmol/kg, time 14 day
[25] = Toxicity in nude mouse xenografted with human SK-BR-3 cells assessed as change in alkaline phosphatase level at 8 umol/kg, iv administered every 3 days for 14 days; format: organism-based; conditions: in vivo, 336 h, dose 8 µmol/kg, time 14 day
[26] = Toxicity in nude mouse xenografted with human SK-BR-3 cells assessed as change in albumin level at 8 umol/kg, iv administered every 3 days for 14 days; format: organism-based; conditions: in vivo, 336 h, dose 8 µmol/kg, time 14 day
[27] = Toxicity in nude mouse xenografted with human SK-BR-3 cells assessed as cell necrosis in liver at 8 umol/kg, iv administered every 3 days for 14 days by H and E staining based analysis; format: organism-based; conditions: in vivo, 336 h, dose 8 µmol/kg, time 14 day

CC[C@H](C)[C@H](NC(=O)[C@@H]1CCCN1C(=O)[C@@H](NC(=O)[C@H](C)N)C(C)C)C(=O)N[C@@H](C)C(=O)N[C@@H](CCC(N)=O)C(=O)N[C@@H](CCCCN)C(=O)N[C@@H](CSSCCOC(=O)C1(CC)C(=O)OCc2c1cc1n(c2=O)Cc2cc3ccccc3nc2-1)C(=O)NCC(=O)N[C@@H](Cc1ccccc1)C(=O)N[C@@H](CC(C)C)C(=O)NCC(=O)N[C@@H](CC(N)=O)C(=O)N1CCC[C@H]1C(=O)N[C@@H](CC(N)=O)C(=O)N[C@@H](Cc1c[nH]c2ccccc12)C(=O)NCC(=O)N[C@@H](CCCNC(=N)N)C(=O)N[C@@H](CO)C(=O)N[C@@H](Cc1c[nH]c2ccccc12)C(=O)N[C@@H](Cc1ccc(O)cc1)C(=O)N[C@@H](CC(N)=O)C(=O)N[C@@H](CCC(N)=O)C(=O)N[C@@H](CCCNC(=N)N)C(=O)N[C@@H](Cc1ccccc1)C(=O)N[C@@H](CCCCN)C(N)=O (some centres not stated) (H-AVPIAQKC(X1)GFLGNPNWGRSWYNQRFK-NH2)
Activity [1]: Active
Activity [2]: Toxic
IC50 [3]: 18.4 µM
Activity [4]: Non-Toxic
Activity [5]: Non-Toxic
Activity [6]: Active
Activity [7]: Non-Toxic
Drug uptake [8]: Active
Activity [9]: Non-Toxic
Activity [10]: Non-Toxic
Activity [11]: Tde
Activity [12]: Active
Activity [13]: Tde
Activity [14]: 3.42%
Activity [15]: Active
Activity [16]: Non-Toxic
Activity [17]: 9.46%
IC50 [18]: 1.58 µM
Activity [19]: Non-Toxic
Drug uptake [20]: Active
inhibition [21]: Dose-Dependent Effect
Activity [22]: Non-Toxic
Activity [23]: Active
Activity [24]: Non-Toxic
Activity [25]: Non-Toxic
Activity [26]: Non-Toxic
Activity [27]: Non-Toxic
